Where a name gives a salt, the structure may show the parent alone. Read-outs that look alike come from different tables or passages of the source.
Key:
[1] = target: T1, HCMV polymerase (Human cytomegalovirus, UniProt P08546); experiment: biochemical
T1 construct: made in house; host or cells: recombinant baculovirus-infected SF-9 cells
Experimental: The HCMV polymerase assay is performed using a scintillation proximity assay (SPA) as described in several references, such as N. D. Cook, et al., Pharmaceutical Manufacturing International, pages 49-53 (1992); K. Takeuchi, Laboratory Practice, September issue (1992); U.S. Pat. No. 4,568,649 (1986); which are incorporated by reference herein. Reactions are performed in 96-well plates. The assay is conducted in 100 μl volume with 5.4 mM HEPE (pH 7.5), 11.7 mM KCl, 4.5 mM MgCl2, 0.36 mg/ml BSA, and 90 nM ^3H-dTTP. Assays are run with and without CHAPS, (3-[(3-cholamidopropyl)-dimethylammonio]-1-propane-sulfonate) at a final concentration of 2 mM. HCMV polymerase is diluted in enzyme dilution buffer containing 50% glycerol, 250 mM NaCl, 10 mM HEPES (pH 7.5), 100 μg/ml BSA, and 0.01% sodium azide. The HCMV polymerase, which is expressed in recombinant baculovirus-infected SF-9 cells and purified according to literature procedures, is added at 10% (or 10 μl) of the final reaction volume, i.e., 100 μl. Compounds are diluted in 50% DMSO and 10 μl are added to each well. Control wells contain an equivalent concentration of DMSO. Unless noted otherwise, reactions are initiated via the addition of 6 nM biotinylated poly(dA)-oligo(dT) template/primer to reaction mixtures containing the enzyme, substrate, and compounds of interest. Plates are incubated in a 25 C or 37 C H2O bath and terminated via the addition of 40 μl/reaction of 0.5 M EDTA (pH 8) per well. Reactions are terminated within the time-frame during which substrate incorporation is linear and varied depending upon the enzyme and conditions used, i.e., 30 min. for HCMV polymerase. Ten μl of streptavidin-SPA beads (20 mg/ml in PBS/10% glycerol) are added following termination of the reaction. Plates are incubated 10 min. at 37 ° C., then equilibrated to room temperature, and counted on a Packard Topcount. Linear regressions are performed and IC50's are calculated using computer software.
A modified version of the above HCMV polymerase assay is performed as described above, but with the following changes: Compounds are diluted in 100% DMSO until final dilution into assay buffer. In the previous assay, compounds are diluted in 50% DMSO. 4.5 mM dithiothreotol (DTT) is added to the polymerase buffer.

[2] = modified SPA assay: compounds diluted in 100% DMSO, 4.5 mM DTT in polymerase buffer, read-out: polymerase IC50 (μM) HCMV

T1 sequence (P08546 whole entry): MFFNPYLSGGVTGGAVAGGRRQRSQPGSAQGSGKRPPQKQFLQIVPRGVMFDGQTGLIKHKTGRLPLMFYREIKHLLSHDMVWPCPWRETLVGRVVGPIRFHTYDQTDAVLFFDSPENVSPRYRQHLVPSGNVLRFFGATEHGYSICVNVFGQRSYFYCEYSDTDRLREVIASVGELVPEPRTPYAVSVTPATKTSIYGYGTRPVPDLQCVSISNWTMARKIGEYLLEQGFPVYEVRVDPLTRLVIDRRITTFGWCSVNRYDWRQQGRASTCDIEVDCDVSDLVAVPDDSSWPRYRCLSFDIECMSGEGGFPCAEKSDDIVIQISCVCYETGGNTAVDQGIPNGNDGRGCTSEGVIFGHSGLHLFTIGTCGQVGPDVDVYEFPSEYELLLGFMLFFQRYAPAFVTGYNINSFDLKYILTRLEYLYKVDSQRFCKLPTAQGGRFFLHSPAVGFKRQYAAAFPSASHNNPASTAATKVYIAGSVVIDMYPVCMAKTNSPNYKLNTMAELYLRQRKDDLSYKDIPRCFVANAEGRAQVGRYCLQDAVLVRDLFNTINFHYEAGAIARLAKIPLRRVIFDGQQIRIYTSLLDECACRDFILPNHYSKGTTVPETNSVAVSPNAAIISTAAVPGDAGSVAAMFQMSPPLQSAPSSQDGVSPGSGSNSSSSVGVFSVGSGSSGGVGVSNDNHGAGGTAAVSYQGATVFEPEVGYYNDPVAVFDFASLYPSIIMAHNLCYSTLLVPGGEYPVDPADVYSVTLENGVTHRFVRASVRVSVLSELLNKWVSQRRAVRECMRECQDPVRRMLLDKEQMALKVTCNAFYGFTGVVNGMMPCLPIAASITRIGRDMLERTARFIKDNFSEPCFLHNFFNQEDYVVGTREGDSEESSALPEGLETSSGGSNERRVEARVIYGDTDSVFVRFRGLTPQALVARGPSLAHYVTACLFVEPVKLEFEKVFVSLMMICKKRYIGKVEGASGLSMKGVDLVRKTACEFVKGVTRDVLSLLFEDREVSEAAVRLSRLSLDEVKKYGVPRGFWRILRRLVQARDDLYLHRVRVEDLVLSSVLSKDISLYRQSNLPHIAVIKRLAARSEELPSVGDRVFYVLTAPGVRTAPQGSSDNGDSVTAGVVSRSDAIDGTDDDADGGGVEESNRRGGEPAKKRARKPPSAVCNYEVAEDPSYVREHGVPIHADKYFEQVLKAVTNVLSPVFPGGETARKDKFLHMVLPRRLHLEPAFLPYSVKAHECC

IC50 [1, 2] [µM] | melting point | Compound | IC50 [1] [µM]
22.4 | 238 to 240 °C | COC(=O)c1cc2c(O)c(C(=O)NCc3ccc(Cl)cc3)cnc2s1 [Example 33, Methyl 5-{[(4-Chlorobenzyl)amino]carbonyl}-4-hydroxythieno[2,3-b]pyridine-2-carboxylate] | 
15.4 |  | CCn1cc(C(=O)NCc2ccc(Cl)cc2)c(=O)c2cc(C#CCOC(=O)C(N)C(C)C)sc21 (stereo not drawn) [Example 31, 3-(5-{[(4-Chlorobenzyl)amino]carbonyl}-7-ethyl-4-oxo-4,7-dihydrothieno[2,3-b]pyridin-2-yl)-2-propynyl 2-Amino-3-methylbutanoate Hydrochloride] | 
1.9 | 194 to 196 °C | CCn1cc(C(=O)NCc2ccc(Cl)cc2)c(=O)c2cc(CN3CCOCC3)sc21 [Example 42, N-(4-Chlorobenzyl)-7-ethyl-2-(4-morpholinylmethyl)-4-oxo-4,7-dihydrothieno[2,3-b]pyridine-5-carboxamide] | 
3.2 | 214 to 215 °C | O=C(NCc1ccc(Cl)cc1)c1cn(Cc2cccnc2)c2sc(CN3CCOCC3)cc2c1=O [Example 54, N-(4-Chlorobenzyl)-2-(4-morpholinylmethyl)-4-oxo-7-(3-pyridinylmethyl)-4,7-dihydrothieno[2,3-b]pyridine-5-carboxamide] | 
1.2 | 169 to 171 °C | O=C(NCc1ccc(Cl)cc1)c1cn(CCCc2ccccc2)c2sc(CN3CCOCC3)cc2c1=O [Example 51, N-(4-Chlorobenzyl)-2-(4-morpholinylmethyl)-4-oxo-7-(3-phenylpropyl)-4,7-dihydrothieno[2,3-b]pyridine-5-carboxamide] | 
0.81 | 111 to 114 °C | CCN(CC)CCn1cc(C(=O)NCc2ccc(Cl)cc2)c(=O)c2cc(CCCO)sc21 [Example 22, N-(4-Chlorobenzyl)-7-[2-(diethylamino)ethyl]-2-(3-hydroxypropyl)4-oxo4,7-dihydrothieno[2,3-b]pyridine-5-carboxamide Hydrorhloride] | 
4.2 | 190 to 196 °C | CC(C)n1cc(C(=O)NCc2ccc(Cl)cc2)c(=O)c2cc(C#CCO)sc21 [Example 27, N-(4-Chlorobenzyl)-2-(3-hydroxy-1-propynyl)-7-isopropyl-4-oxo-4,7-dihydrothieno[2,3-b]pyridine-5-carboxamide] | 
 | 171 to 172 °C | CCn1cc(C(=O)NCc2ccc(Cl)cc2)c(=O)c2cc(C#CCOC(=O)C(N)C(C)C)sc21 (stereo not drawn) (as salt: hydrochloride) [Example 31, 3-(5-{[(4-Chlorobenzyl)amino]carbonyl}-7-ethyl-4-oxo-4,7-dihydrothieno[2,3-b]pyridin-2-yl)-2-propynyl 2-Amino-3-methylbutanoate Hydrochloride] | 
 | 212 to 214 °C (dec.) | CCN(CC)CCn1cc(C(=O)NCc2ccc(Cl)cc2)c(=O)c2cc(C#CCO)sc21 (as salt: hydrochloride) [Example 18, N-(4-Chlorobenzyl)-7-[2-(diethylamino)ethyl]-2-(3hydroxy-1-propynyl)4-oxo4,7-dihydrothieno[2,3-b]pyridine-5-carboxamide hydrochloride] | 

The remaining lines, values behind:

Compound | IC50 [1, 2] [µM] | melting point | IC50 [1] [µM]
Cn1cc(C(=O)NCc2ccc(Cl)cc2)c(=O)c2cc(CN3CCSCC3)sc21 [Example 38, N-(4-Chlorobenzyl)-7-methyl-4-oxo-2-(4-thiomorpholinyl-methyl)-4,7-dihydrothieno[2,3-b]pyridine-5-carboxamide] | 2.6 | 215 to 218 °C (dec.) | 
CCCn1cc(C(=O)NCc2ccc(Cl)cc2)c(=O)c2cc(CN3CCOCC3)sc21 [Example 43, N-(4-Chlorobenzyl)-2-(4-morpholinylmethyl)-4-oxo-7-propyl-4,7dihydrothieno[2,3-b]pyridine-5-carboxamide] | 1.9 | 174 to 176 °C | 
CCn1cc(C(=O)NCc2ccc(Cl)cc2)c(=O)c2cc(CCCO)sc21 [Example 16, N-(4-Chlorobenzyl)-7-ethyl-2-(3-hydroxypropyl)-4-oxo-4,7-dihydrothieno [2,3-b] pyfidine-5-carboxamide] | 0.67 | 144 to 146 °C | 
O=C(NCc1ccc(Cl)cc1)c1cn(Cc2ccccc2)c2sc(CN3CCOCC3)cc2c1=O [Example 49, 7-Benzyl-N-(4-chlorobenzyl)-2-(4-morpholinylmethyl)-4-oxo-4,7-dihydrothieno[2,3-b]pyridine-5-carboxamide] | 3.2 | 225 to 226.5 °C | 
Cn1cc(C(=O)NCc2ccc(Cl)cc2)c(=O)c2cc(C#CCO)sc21 [Example 24, N-(4-Chlorobenzyl)-2-(3-hydroxy-1-propynyl)-7-methyl-4-oxo-4,7-dihydrothieno[2,3-b]pyridine-5-carboxamide] | 1 | 206 to 208 °C | 
CCn1cc(C(=O)NCc2ccc(Cl)cc2)c(=O)c2cc(C#CCOC(=O)CN3CCOCC3)sc21 [Example 30, 3-(5-{[(4-Chlorobenzyl)amino]carbonyl}-7-ethyl-4-oxo-4,7-dihydrothieno[2,3-b]pyridin-2-yl)-2-propynyl 2-(4-Morpholinyl)acetate] | 28.2 | 168 to 170 °C | 
CCn1cc(C(=O)NCc2ccc(Cl)cc2)c(=O)c2cc(CCCCO)sc21 [Example 20, N-(4-Chlorobenzyl)-7-ethyl-2-(4-hydroxybutyl)4-oxo-4,7-dihydrothieno[2,3-b]pyridine-5-carboxamide] | 0.18 | 136 to 139 °C | 
O=C(NCc1ccc(Cl)cc1)c1cnc2sc(CN3CCOCC3)cc2c1O [Example 41, N-(4-Chlorobenzyl)-4-hydroxy-2-(4-morpholinylmethyl)-thieno[2,3-b]pyridine-5-carboxamide] |  | 193 to 195 °C | 3.4
CC(C)n1cc(C(=O)NCc2ccc(Cl)cc2)c(=O)c2cc(CCCO)sc21 [Example 28, N-(4-Chlorobenzyl)-2-(3-hydroxypropyl)-7-isopropyl-4-oxo4,7-dihydrothieno[2,3-b]pyridine-5-carboxamide] | 2.4 | 84 to 92 °C | 
Cn1cc(C(=O)NCc2ccc(Br)cc2)c(=O)c2cc(CN3CCOCC3)sc21 [Example 46, N-(4-Bromobenzyl)-7-methyl-2-(4-morpholinylmethyl)-4-oxo-4,7-dihydrothieno[2,3-b]pyridine-5-carboxamide] | 3.8 | 245 to 246 °C | 
CCn1cc(C(=O)NCc2ccc(Cl)cc2)c(=O)c2cc(Br)sc21 [Example 11, 2-Bromo-N-(4-chlorobenzyl)-7-ethyl-4-oxo-4,7-dihydrothieno[2,3-b]pyridine-5-carboxamide] | 18.8 | 196 to 197 °C | 
O=C(NCc1ccc(Cl)cc1)c1cnc2sc(C(=O)N3CCOCC3)cc2c1O [Example 47, N-(4-Chlorobenzyl)-4-hydroxy-2-(4-morpholinyl-carbonyl)-thieno[2,3-b]pyridine-5-carboxamide] | > 20 | 217 to 219 °C | 
N#Cc1cc2c(O)c(C(=O)NCc3ccc(Cl)cc3)cnc2s1 [Example 9, N-(4-Chlorobenzyl)-2-cyano-4-hydroxythieno[2,3-b]pyridine-5-carboxamide] | 12.5 |  | 
O=C(NCc1ccc(Cl)cc1)c1cnc2sc(C#CCCO)cc2c1O [Example 7, N-(4-Chlorobenzyl)-4-hydroxy-2-(4-hydroxy-1-butynyl)thieno[2,3-b]pyridine-5-carboxamide] | 8 | 242 to 246 °C | 
O=C(NCc1ccc(Cl)cc1)c1cn(Cc2cccc(F)c2)c2sc(CN3CCOCC3)cc2c1=O [Example 50, N-(4-Chlorobenzyl)-7-(3-fluorobenzyl)-2-(4-morpholinyl-methyl)-4-oxof47-dihydrothieno[2,3-b]pyridine-5-carboxamide] | 3.8 | 214 to 215 °C | 
O=C(NCc1ccc(Cl)cc1)c1cnc2sccc2c1O [Example 1, N-(4-Chlorobenzyl)-4-hydroxythieno[2,3-b]pyridine-5-carboxamide] | 28.9 | 238 to 240 °C | 
CN(Cc1cc2c(=O)c(C(=O)NCc3ccc(Cl)cc3)cn(C)c2s1)CC(O)c1ccc(O)cc1 (stereo not drawn) [Example 39, N-(4-Chlorohenzyl)-2-(((2-hydroxy-2-(4-hydroxyphenyl)ethyl)(methyl)amino)methyl)-7-methyl-4-oxo-4,7-dihydrothieno[2,3-b]pyridine-5-carboxamide] | < 0.31 | 187 °C | 
